“And” between values parts separate entries of the source, which are not always exact repeats. Identical values can stand only once. Like-named read-outs stand apart in the source and are kept apart here.
Assays:
Type in all cases: cell-based
NR2F6 LBD = target: T1, NR2F6 LBD (Homo sapiens, UniProt P10588); assay: NR2F6 LBD transient transfection; conditions: LBD
T1 construct: expressed in transfected cells
T1 sequence (P10588 165-393 limits assumed): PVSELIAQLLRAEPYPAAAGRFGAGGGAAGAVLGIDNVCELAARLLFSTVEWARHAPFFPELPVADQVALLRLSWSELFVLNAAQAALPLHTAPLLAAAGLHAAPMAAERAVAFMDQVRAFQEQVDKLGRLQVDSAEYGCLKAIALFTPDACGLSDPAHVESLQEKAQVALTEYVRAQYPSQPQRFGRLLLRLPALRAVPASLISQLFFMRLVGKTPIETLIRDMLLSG
Summary of the method: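 LBD-transfected cells treated at 40, 10, 2 and 0.5 μM (4 replicates); cytotoxicity measured in parallel, normalized to DMSO (0%) and zero signal (100%). Higher concentrations excluded where signal loss reflected toxicity.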

HEK293 pGL4 = assay: Firefly_pGL signal, cmpd/DMSO (pGL4 control cells); conditions: Homo sapiens
NR2F6 = target: T2, NR2F6 (Homo sapiens, UniProt P10588); assay: NR2F6 agonist screening, Firefly signal cmpd/DMSO
T2 construct: expressed in transfected cells; also transient transfection
T2 sequence (P10588 1-404): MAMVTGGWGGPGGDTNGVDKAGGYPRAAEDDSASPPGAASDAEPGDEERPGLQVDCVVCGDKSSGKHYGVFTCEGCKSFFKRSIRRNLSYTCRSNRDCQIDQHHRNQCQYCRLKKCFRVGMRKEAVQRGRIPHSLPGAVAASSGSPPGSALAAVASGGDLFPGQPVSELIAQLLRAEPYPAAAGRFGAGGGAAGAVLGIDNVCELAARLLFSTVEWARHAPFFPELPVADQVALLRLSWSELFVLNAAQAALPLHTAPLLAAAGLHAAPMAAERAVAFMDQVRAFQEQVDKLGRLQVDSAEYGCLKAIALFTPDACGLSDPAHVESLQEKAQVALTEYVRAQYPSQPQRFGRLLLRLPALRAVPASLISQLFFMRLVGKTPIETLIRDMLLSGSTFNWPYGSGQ

Renilla = Renilla signal in NR2F6 agonist screening, cmpd/DMSO; conditions: Renilla, F4
[1] = HEK293, 0.5 uM, pGL4, read-out: Firefly pGL4, cmpd/DMSO (mean)
[2] = HEK293, 2 uM, pGL4, read-out: Firefly pGL4, cmpd/DMSO (mean)
[3] = HEK293, 10 uM, pGL4, read-out: Firefly pGL4, cmpd/DMSO (mean)
[4] = HEK293, 40 uM, pGL4, read-out: Firefly pGL4, cmpd/DMSO (mean)
[5] = HEK293, pGL4, 1% FBS, 0.5 uM, read-out: Firefly, pGL4, 1% FBS, cmpd/DMSO (mean)
[6] = HEK293, pGL4, 1% FBS, 2 uM, read-out: Firefly, pGL4, 1% FBS, cmpd/DMSO (mean)
[7] = HEK293, pGL4, 1% FBS, 10 uM, read-out: Firefly, pGL4, 1% FBS, cmpd/DMSO (mean)
[8] = HEK293, pGL4, 10% FBS, 0.5 uM, read-out: Firefly, pGL4, 10% FBS, cmpd/DMSO (mean)
[9] = HEK293, pGL4, 10% FBS, 2 uM, read-out: Firefly, pGL4, 10% FBS, cmpd/DMSO (mean)
[10] = HEK293, pGL4, 10% FBS, 10 uM, read-out: Firefly, pGL4, 10% FBS, cmpd/DMSO (mean)
[11] = read-out: Renilla, F4, cmpd/DMSO (mean)
[12] = 1% FBS, read-out: Renilla, F4, 1% FBS, cmpd/DMSO (mean)
[13] = 10% FBS, read-out: Renilla, F4, 10% FBS, cmpd/DMSO (mean)

COCCCN[C@H]1CS(=O)(=O)C[C@@H]1S(=O)(=O)c1ccc(Cl)cc1 [Compound D126]
Firefly LBD, cmpd/DMSO (mean) (NR2F6 LBD; 0.5 uM): 1.6
Firefly LBD, cmpd/DMSO (mean) (NR2F6 LBD; 2 uM): 1.5
Firefly LBD, cmpd/DMSO (mean) (NR2F6 LBD; 10 uM): 2.9
Firefly LBD, cmpd/DMSO (mean) (NR2F6 LBD; 40 uM): 2.1
fold induction at 0.5 µM (HEK293 pGL4; [1]): 1.2
fold induction at 2 µM (HEK293 pGL4; [2]): 1.2
fold induction at 10 µM (HEK293 pGL4; [3]): 3
fold induction at 40 µM (HEK293 pGL4; [4]): 0.8
fold induction at 0.5 µM (HEK293 pGL4; [5]): 1.4
fold induction at 2 µM (HEK293 pGL4; [6]): 1.8
fold induction at 10 µM (HEK293 pGL4; [7]): 2
fold induction at 40 µM (HEK293 pGL4; HEK293, pGL4, 1% FBS, 40 uM, read-out: Firefly, pGL4, 1% FBS, cmpd/DMSO (mean)): 1.6
fold induction at 0.5 µM (HEK293 pGL4; [8]): 1.1
fold induction at 2 µM (HEK293 pGL4; [9]): 1.1
fold induction at 10 µM (HEK293 pGL4; [10]): 1.8
fold induction at 40 µM (HEK293 pGL4; HEK293, pGL4, 10% FBS, 40 uM, read-out: Firefly, pGL4, 10% FBS, cmpd/DMSO (mean)): 3.9
Firefly F4, cmpd/DMSO (mean) (NR2F6; 0.5 uM): 1.0
Firefly F4, cmpd/DMSO (mean) (NR2F6; 2 uM): 1.8
Firefly F4, cmpd/DMSO (mean) (NR2F6; 10 uM): 4.5
Firefly F4, cmpd/DMSO (mean) (NR2F6; 40 uM): 2.3
F4, Firefly/Renilla for S/B(F4) > 3 (NR2F6; 1% FBS, 10 uM): 2.0
Firefly, F4/pGL4 for S/B(F4) > 3 (NR2F6; 1% FBS, 10 uM): 1.6
F4, Firefly/Renilla for S/B(F4) > 3 (NR2F6; 10% FBS, 40 uM): 3.0
Firefly, F4/pGL4 for S/B(F4) > 3 (NR2F6; 10% FBS, 40 uM): 2.1
Firefly, F4, 1% FBS, cmpd/DMSO (mean) (NR2F6; 1% FBS, 0.5 uM): 0.7
Firefly, F4, 1% FBS, cmpd/DMSO (mean) (NR2F6; 1% FBS, 2 uM): 1.5
Firefly, F4, 1% FBS, cmpd/DMSO (mean) (NR2F6; 1% FBS, 10 uM): 3.1
Firefly, F4, 1% FBS, cmpd/DMSO (mean) (NR2F6; 1% FBS, 40 uM): 0.6
Firefly, F4, 10% FBS, cmpd/DMSO (mean) (NR2F6; 10% FBS, 0.5 uM): 1.4
Firefly, F4, 10% FBS, cmpd/DMSO (mean) (NR2F6; 10% FBS, 2 uM): 1.0
Firefly, F4, 10% FBS, cmpd/DMSO (mean) (NR2F6; 10% FBS, 10 uM): 2.9
Firefly, F4, 10% FBS, cmpd/DMSO (mean) (NR2F6; 10% FBS, 40 uM): 8.3
fold induction at 0.5 µM (Renilla; [11]): 1.1
fold induction at 2 µM (Renilla; [11]): 1.2
fold induction at 10 µM (Renilla; [11]): 1.6
fold induction at 40 µM (Renilla; [11]): 1.6
fold induction at 0.5 µM (Renilla; [12]): 1.2
fold induction at 2 µM (Renilla; [12]): 1.2
fold induction at 10 µM (Renilla; [12]): 1.5
fold induction at 40 µM (Renilla; [12]): 1.8
fold induction at 0.5 µM (Renilla; [13]): 1
fold induction at 2 µM (Renilla; [13]): 1.1
fold induction at 10 µM (Renilla; [13]): 1.7
fold induction at 40 µM (Renilla; [13]): 2.8

Cc1cccc(CN[C@H]2CS(=O)(=O)C[C@@H]2S(=O)(=O)c2ccc(Cl)cc2)c1 [Compound D127]
Firefly LBD, cmpd/DMSO (mean) (NR2F6 LBD; 0.5 uM): 1.2
Firefly LBD, cmpd/DMSO (mean) (NR2F6 LBD; 2 uM): 1.2
Firefly LBD, cmpd/DMSO (mean) (NR2F6 LBD; 10 uM): 2.3
Firefly LBD, cmpd/DMSO (mean) (NR2F6 LBD; 40 uM): 2.1
fold induction at 0.5 µM (HEK293 pGL4; [1]): 1
fold induction at 2 µM (HEK293 pGL4; [2]): 1.4
fold induction at 10 µM (HEK293 pGL4; [3]): 1.8
fold induction at 40 µM (HEK293 pGL4; [4]): 2.6
fold induction at 0.5 µM (HEK293 pGL4; [5]): 1.3
fold induction at 2 µM (HEK293 pGL4; [6]): 1.9
fold induction at 10 µM (HEK293 pGL4; [7]): 2.7
fold induction at 0.5 µM (HEK293 pGL4; [8]): 1.2
fold induction at 2 µM (HEK293 pGL4; [9]): 1.7
fold induction at 10 µM (HEK293 pGL4; [10]): 2.7
Firefly F4, cmpd/DMSO (mean) (NR2F6; 0.5 uM): 1.2
Firefly F4, cmpd/DMSO (mean) (NR2F6; 2 uM): 1.1
Firefly F4, cmpd/DMSO (mean) (NR2F6; 10 uM): 2.2
Firefly F4, cmpd/DMSO (mean) (NR2F6; 40 uM): 2.0
F4, Firefly/Renilla for S/B(F4) > 3 (NR2F6; 1% FBS, 10 uM): 2.7
Firefly, F4/pGL4 for S/B(F4) > 3 (NR2F6; 1% FBS, 10 uM): 1.8
F4, Firefly/Renilla for S/B(F4) > 3 (NR2F6; 1% FBS, 40 uM): 1.9
Firefly, F4/pGL4 for S/B(F4) > 3 (NR2F6; 1% FBS, 40 uM): 2.4
F4, Firefly/Renilla for S/B(F4) > 3 (NR2F6; 10% FBS, 10 uM): 3.2
Firefly, F4/pGL4 for S/B(F4) > 3 (NR2F6; 10% FBS, 10 uM): 2.1
F4, Firefly/Renilla for S/B(F4) > 3 (NR2F6; 10% FBS, 40 uM): 2.1
Firefly, F4/pGL4 for S/B(F4) > 3 (NR2F6; 10% FBS, 40 uM): 2.3
Firefly, F4, 1% FBS, cmpd/DMSO (mean) (NR2F6; 1% FBS, 0.5 uM): 1.0 and 1.3
Firefly, F4, 1% FBS, cmpd/DMSO (mean) (NR2F6; 1% FBS, 2 uM): 1.8 and 0.9
Firefly, F4, 10% FBS, cmpd/DMSO (mean) (NR2F6; 10% FBS, 0.5 uM): 1.2
Firefly, F4, 10% FBS, cmpd/DMSO (mean) (NR2F6; 10% FBS, 2 uM): 1.4 and 0.7
fold induction at 0.5 µM (Renilla; [11]): 1
fold induction at 2 µM (Renilla; [11]): 1
fold induction at 10 µM (Renilla; [11]): 1.2
fold induction at 40 µM (Renilla; [11]): 1.3
fold induction at 0.5 µM (Renilla; [12]): 1.1
fold induction at 2 µM (Renilla; [12]): 1.2
fold induction at 10 µM (Renilla; [12]): 1.8
fold induction at 40 µM (Renilla; [12]): 1.5
fold induction at 0.5 µM (Renilla; [13]): 1
fold induction at 2 µM (Renilla; [13]): 1.1
fold induction at 10 µM (Renilla; [13]): 1.7
